# Assay results: PubChem BioAssay AID248 (DTP/NCI, 2004)
# “And” between values parts separate entries of the source, which are not always exact repeats. Equal values may be shown once. Toxic doses and inconclusive results are not listed.
# Test system: L1210 leukemia ip in BDF1 mice, survival T/C
# Assay: NCI In Vivo Anticancer Drug Screen. Data for tumor model L1210 Leukemia (intraperitoneal) in B6D2F1 (BDF1) mice
# Conditions: endpoint: mean survival time, higher = longer survival
# Method in brief: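 In this screen, tumor-bearing mice given compound are compared to those given vehicle, and their survival values are reported as a treated-to-control quotient.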
# [1] = dose: 100.0 mg/kg/injection, schedule: Q04DX002 (ip), vehicle: saline with Tween-80
# [2] = dose: 200.0 mg/kg/injection, schedule: Q04DX002 (ip), vehicle: saline with Tween-80
# [3] = dose: 400.0 mg/kg/injection, schedule: Q04DX002 (ip), vehicle: saline with Tween-80
# [4] = dose: 100.0 mg/kg/injection, schedule: Q01DX001 (ip), vehicle: carboxymethylcellulose (CMC)
# [5] = dose: 100.0 mg/kg/injection, schedule: Q01DX009 (ip), vehicle: Klucel (hydroxypropylcellulose) (HPC)
# [6] = dose: 100.0 mg/kg/injection, schedule: Q04DX003 (ip), vehicle: Klucel (hydroxypropylcellulose) (HPC)
# [7] = dose: 200.0 mg/kg/injection, schedule: Q01DX009 (ip), vehicle: Klucel (hydroxypropylcellulose) (HPC)
# [8] = dose: 200.0 mg/kg/injection, schedule: Q04DX003 (ip), vehicle: Klucel (hydroxypropylcellulose) (HPC)
# [9] = dose: 400.0 mg/kg/injection, schedule: Q04DX003 (ip), vehicle: Klucel (hydroxypropylcellulose) (HPC)
# [10] = dose: 100.0 mg/kg/injection, schedule: Q04DX003 (ip), vehicle: saline with Tween-80
# [11] = dose: 200.0 mg/kg/injection, schedule: Q04DX003 (ip), vehicle: saline with Tween-80
# [12] = dose: 400.0 mg/kg/injection, schedule: Q04DX003 (ip), vehicle: saline with Tween-80
# [13] = dose: 75.0 mg/kg/injection, schedule: Q01DX001 (ip), vehicle: carboxymethylcellulose (CMC)
# [14] = dose: 150.0 mg/kg/injection, schedule: Q01DX001 (ip), vehicle: carboxymethylcellulose (CMC)
# [15] = dose: 100.0 mg/kg/injection, schedule: Q01DX001 (ip), vehicle: saline with Tween-80
# [16] = dose: 200.0 mg/kg/injection, schedule: Q01DX001 (ip), vehicle: saline with Tween-80
# [17] = dose: 400.0 mg/kg/injection, schedule: Q01DX001 (ip), vehicle: saline with Tween-80
# [18] = dose: 100.0 mg/kg/injection, schedule: Q01DX001 (ip), vehicle: saline
# [19] = dose: 200.0 mg/kg/injection, schedule: Q01DX001 (ip), vehicle: saline
# [20] = dose: 100.0 mg/kg/injection, schedule: Q01DX009 (ip), vehicle: saline
# [21] = dose: 200.0 mg/kg/injection, schedule: Q01DX009 (ip), vehicle: saline
# [22] = dose: 100.0 mg/kg/injection, schedule: Q01DX001 (ip), vehicle: Klucel (hydroxypropylcellulose) (HPC)
# [23] = dose: 200.0 mg/kg/injection, schedule: Q01DX001 (ip), vehicle: Klucel (hydroxypropylcellulose) (HPC)
# [24] = dose: 400.0 mg/kg/injection, schedule: Q01DX009 (ip), vehicle: Klucel (hydroxypropylcellulose) (HPC)
# [25] = dose: 100.0 mg/kg/injection, schedule: Q01DX009 (ip), vehicle: saline with Tween-80
# [26] = dose: 200.0 mg/kg/injection, schedule: Q01DX009 (ip), vehicle: saline with Tween-80
compound,measurement,setting,value
COc1ccc(NC(=S)Nc2ccc(Cc3ccc(NC(=S)Nc4ccc(OC)cc4)cc3)cc2)cc1,T/C,[1],101 % of control
same,T/C,[2],95 % of control
same,T/C,[3],88 % of control
O=C(O)c1c(-c2ccccc2)[nH]c2cc(Cl)ccc2c1=O,T/C,"dose: 50.0 mg/kg/injection, schedule: Q01DX001 (ip), vehicle: carboxymethylcellulose (CMC)",113 % of control
same,T/C,[4],113 % of control
same,T/C,[5],112 % of control
same,T/C,[6],104 % of control
same,T/C,"dose: 200.0 mg/kg/injection, schedule: Q01DX001 (ip), vehicle: carboxymethylcellulose (CMC)",107 % of control
same,T/C,[7],106 % of control
same,T/C,[8],107 % of control
same,T/C,[9],104 % of control
Cc1ccc2cc3c(ccc4ccccc43)c3c2c1CC3,T/C,[10],119 % of control
same,T/C,[11],120 % of control
same,T/C,[12],120 % of control
CCOC(=O)c1c(-c2ccc(OC)c(OC)c2OCc2ccccc2)c(C)c(C)[nH]c1=O,T/C,[13],102 % of control
same,T/C,[14],102 % of control
same,T/C,"dose: 300.0 mg/kg/injection, schedule: Q01DX001 (ip), vehicle: carboxymethylcellulose (CMC)",102 % of control
COc1cccnc1/C=N/NC(N)=S,T/C,"dose: 12.5 mg/kg/injection, schedule: Q01DX009 (ip), vehicle: saline with Tween-80",150 % of control
Nc1ncnc(N)c1NC(=O)c1cccc(-c2ccccc2)c1,T/C,[15],97 % of control
same,T/C,[16],101 % of control
same,T/C,[17],90 % of control
CCCCn1cnc2c(=O)n(C)c(=O)n(C)c21,T/C,[18],96 % of control
same,T/C,[19],94 % of control
CCOC(=O)c1ccc(OC(=O)Nc2ccc(Cl)cc2OC)cc1,T/C,[20],87 % of control
same,T/C,[21],100 % of control
CCOS(=O)(=O)c1ccc([N+](=O)[O-])cc1[N+](=O)[O-],T/C,[20],97 % of control
same,T/C,[21],92 % of control
Nc1ccc(S(=O)(=O)F)c(Cl)c1,T/C,[18],102 % of control
same,T/C,[19],98 % of control
same,T/C,"dose: 400.0 mg/kg/injection, schedule: Q01DX001 (ip), vehicle: saline",98 % of control
Nc1cccc(OCCCOc2ccccc2)c1,T/C,[22],94 % of control
same,T/C,[23],97 % of control
same,T/C,"dose: 400.0 mg/kg/injection, schedule: Q01DX001 (ip), vehicle: Klucel (hydroxypropylcellulose) (HPC)",94 % of control
Cc1cccc(NC(=O)Nc2ccccc2F)n1,T/C,[22],96 % of control
same,T/C,[5],96 % of control
same,T/C,"dose: 100.0 mg/kg/injection, schedule: Q04DX002 (ip), vehicle: Klucel (hydroxypropylcellulose) (HPC)",94 % of control and 87 % of control
same,T/C,[6],99 % of control
same,T/C,[23],91 % of control
same,T/C,[7],96 % of control and 88 % of control
same,T/C,"dose: 200.0 mg/kg/injection, schedule: Q04DX002 (ip), vehicle: Klucel (hydroxypropylcellulose) (HPC)",96 % of control and 91 % of control
same,T/C,[8],111 % of control
same,T/C,[24],105 % of control and 88 % of control
same,T/C,"dose: 400.0 mg/kg/injection, schedule: Q04DX002 (ip), vehicle: Klucel (hydroxypropylcellulose) (HPC)",87 % of control and 91 % of control
same,T/C,[9],97 % of control
CCCCCCOC(CN(C)C)C(Cl)(Cl)Cl (stereo unspecified),T/C,[25],101 % of control
same,T/C,[10],93 % of control
same,T/C,[26],98 % of control
same,T/C,[11],95 % of control
same,T/C,[12],98 % of control
O=C(CN1CCCCC1)Nc1cccc(C(F)(F)F)c1,T/C,[5],99 % of control
same,T/C,[6],97 % of control
same,T/C,[7],100 % of control
same,T/C,[8],98 % of control
same,T/C,[24],100 % of control
same,T/C,[9],93 % of control
COc1ccccc1/C=C\C(=O)C1COCN1 (stereo unspecified),T/C,"dose: 75.0 mg/kg/injection, schedule: Q04DX003 (ip), vehicle: saline",105 % of control
same,T/C,"dose: 150.0 mg/kg/injection, schedule: Q04DX003 (ip), vehicle: saline",100 % of control
same,T/C,"dose: 300.0 mg/kg/injection, schedule: Q04DX003 (ip), vehicle: saline",102 % of control
CC(=O)CC(=O)Nc1cccc(Cl)c1C,T/C,[5],89 % of control
same,T/C,[7],89 % of control
N#CCCn1c(=S)sc2ccccc21,T/C,"dose: 50.0 mg/kg/injection, schedule: Q04DX003 (ip), vehicle: saline with Tween-80",103 % of control
same,T/C,[10],100 % of control
same,T/C,[11],106 % of control
Cc1ccc([N+](=O)[O-])cc1NC(=O)SCc1ccccc1,T/C,[6],93 % of control
same,T/C,[8],102 % of control
same,T/C,[9],105 % of control
c1ccc2c(c1)cnn1cnnc21,T/C,[13],115 % of control
same,T/C,[14],97 % of control
C[Si](C)(C)O[Si](C)(C)c1ccccc1,T/C,"dose: 50.0 mg/kg/injection, schedule: Q01DX009 (ip), vehicle: saline",102 % of control
same,T/C,[20],88 % of control
same,T/C,"dose: 100.0 mg/kg/injection, schedule: Q04DX003 (ip), vehicle: saline",103 % of control
same,T/C,[21],99 % of control
same,T/C,"dose: 200.0 mg/kg/injection, schedule: Q04DX003 (ip), vehicle: saline",109 % of control
same,T/C,"dose: 400.0 mg/kg/injection, schedule: Q01DX009 (ip), vehicle: saline",96 % of control
same,T/C,"dose: 400.0 mg/kg/injection, schedule: Q04DX003 (ip), vehicle: saline",95 % of control
Cc1c(-c2ccc(Cl)cc2)nc2cc(Cl)ccc2c1C(=O)O,T/C,"dose: 100.0 mg/kg/injection, schedule: Q01DX005 (ip), vehicle: saline",107 % of control
same,T/C,[20],100 % of control
same,T/C,"dose: 200.0 mg/kg/injection, schedule: Q01DX005 (ip), vehicle: saline",93 % of control
same,T/C,[21],103 % of control
same,T/C,"dose: 400.0 mg/kg/injection, schedule: Q01DX005 (ip), vehicle: saline",91 % of control
O=C(c1ccccc1)c1cc(Cl)ccc1NC(=O)C(Cl)(Cl)Cl,T/C,"dose: 50.0 mg/kg/injection, schedule: Q01DX001 (ip), vehicle: saline with Tween-80",97 % of control
same,T/C,[15],102 % of control
same,T/C,[25],95 % of control and 89 % of control
same,T/C,[1],96 % of control and 104 % of control
same,T/C,[16],92 % of control
same,T/C,[26],95 % of control and 89 % of control
same,T/C,[2],93 % of control and 96 % of control
same,T/C,[17],91 % of control
same,T/C,"dose: 400.0 mg/kg/injection, schedule: Q01DX009 (ip), vehicle: saline with Tween-80",89 % of control and 91 % of control
same,T/C,[3],101 % of control and 89 % of control
CCCCNc1ncnc2c1cnn2C,T/C,"dose: 31.25 mg/kg/injection, schedule: Q01DX010 (ip), vehicle: saline",94 % of control and 105 % of control
same,T/C,"dose: 50.0 mg/kg/injection, schedule: Q01DX Z (ip), vehicle: saline",102 % of control
same,T/C,"dose: 62.5 mg/kg/injection, schedule: Q01DX010 (ip), vehicle: saline",100 % of control
same,T/C,"dose: 75.0 mg/kg/injection, schedule: Q01DX Z (ip), vehicle: saline",100 % of control
same,T/C,"dose: 100.0 mg/kg/injection, schedule: Q01DX Z (ip), vehicle: saline",111 % of control
same,T/C,"dose: 125.0 mg/kg/injection, schedule: Q01DX010 (ip), vehicle: saline",97 % of control and 113 % of control
same,T/C,[19],98 % of control
C/C=C1/C[C@@H](C)[C@@](C)(O)C(=O)OCC2=CCN3CC[C@@H](OC1=O)[C@@H]23,T/C,"dose: 10.0 mg/kg/injection, schedule: Q01DX015 (ip), vehicle: carboxymethylcellulose (CMC)",93 % of control
same,T/C,"dose: 20.0 mg/kg/injection, schedule: Q01DX015 (ip), vehicle: carboxymethylcellulose (CMC)",96 % of control
same,T/C,"dose: 30.0 mg/kg/injection, schedule: Q01DX015 (ip), vehicle: carboxymethylcellulose (CMC)",98 % of control
same,T/C,[4],105 % of control
